Results from US8420605B2, “Hydrogel compositions” (The University of Strathclyde, priority 2005, dated 2013).
Peptide text beside a SMILES is read from it. * marks the point of attachment. Fmoc = O=C(OCC1c2ccccc2-c2ccccc21)*

Assays:
[1] = Preparation of self-assembled peptide hydrogels by pH adjustment (gel formation); assay type: physicochemical
Protocol: Fmoc peptides (from BACHEM Ltd) were weighed out into 4 ml glass vials. 2 ml purified water was added followed by sonication for 30-60 seconds. 0.5M NaOH solution was added in 50 μl droplets until a clear solution was formed. 0.1M HCl was added to the solution by stepwise addition of 50 μl followed by mixing using a vortex. pH values were estimated by transferring a spatula tip of hydrogel onto universal indicator paper.
Self-assembled scaffolds were prepared by first suspending the Fmoc-dipeptide in purified water. Upon increase of the pH by addition of concentrated NaOH (thus de-protonating the carboxylic acid group) to a value of >8, a clear solution was obtained. To this solution, concentrated hydrochloric acid was added drop wise until the pH of the solution became 7, at which point a clear, self-supporting gel was formed.
Table 3 below identifies various peptide derivatives (incorporating an aromatic stacking ligand) and mixtures thereof that formed gels at a pH of 6-8 at the indicated concentrations: […]

[2] = test system: Human mesenchymal stem cells (MSCs); assay: PCR gene expression of cells cultured in gels for 14 days; assay type: cell-based; conditions: after 14 days
Protocol: Human mesenchymal stem cells (MSCs) were isolated from bone marrow taken from patients (with both patient and ethical consent) undergoing hip replacement surgery.A HISTOPAQUE (SIGMA-ALDRICH) gradient was used to isolate mononuclear cells and these cells were cultured in monolayer with α-MEM (with 10% heat-inactivated foetal calf serum, 100 U/ml streptomycin/penicillin and 0.85 mM ascorbic acid) under standard culture conditions (humidified atmostphere, 37° C., 5% CO2). After 5 days non-adherent cells were removed by washing with media.
At 80% confluence in passage 3 the MSCs were trypsinised and a cell count was performed. A suitable number of cells were centrifuged at 400 g for 5 minutes and then resuspended in a 10 mM Fmoc-Phe-Phe solution to a final concentration of 4×10^6 cells/ml. The cell suspension was mixed to ensure even cell distribution and 200 μl layers were pipetted into high pore density (0.4 μm pore size) cell culture inserts in 24-well plates. Media (α-MEM as previously described) was added gently to both the well and the insert and gels were allowed to polymerise.
The cell-seeded gels were then cultured under standard conditions for 14 days with media changed every 2 days. Following culture 1 ml of TRIZOL was added to each insert and the gels disrupted by pipetting. A modified RNA extraction procedure was performed combining both the TRIZOL and PURELINK (INVITROGEN) extraction procedures. RNA was reverse transcribed to cDNA using SUPERSCRIPT II (INVITROGEN) and PCR performed using a standard HOTSTARTAQ (QIAGEN) procedure for the house-keeping gene GAPDH as well as the transcription factor SOX-9, aggrecan and collagen types I and II.
PCR products were run on a 1.5% agarose gel containing ethidium bromide and visualised on a UV-transilluminator.

[3] = test system: human adult dermal fibroblasts; assay: LDH assay of cell viability (3D culture); assay type: cell-based
Protocol: In order to quantitatively test cell viability in the 3D culture, LDH assay was adopted which tested the amount of lactate dehydrogenase inside cell […] (reflecting cell numbers).
0.0107 gram of Fmoc-Phe-Phe-OH was weighed in a glass vial and sterilized for 30 minutes by an ultraviolet light with bottles of distilled water, filtered NaOH (Sodium Hydroxide, 0.5 M/L), filtered HCl (Hydrochloric Acid, 0.5 M/L), and relevant apparatus (spatulas, pipettes, Vortex). 2 mL of the sterile distilled water was then added into the glass vial of Fmoc-Phe-Phe-OH, and the mixture was vortexed for a few seconds to create a suspension. Afterwards, approximate 100 μL of NaOH was gradually pipetted into the suspension (20 μL each pipetting) and the mixture was vortexed after every addition of the alkaline. The whole mixture was shaken continually until a homogeneous transparent solution was obtained. The basic peptide solution (pH around 10) was finally neutralized to pH 7 by dropwise addition of HCl and pH values were monitored by a pH meter with a micro-probe. […]
The culture was maintained in a 37° C./5% CO2 incubator for a 10 day period and LDH assay was carried out after 1 hour, 1 day, 3 days, 7 days, and 10 days. […] Assay reagent was then added, the mixture was incubated, and light absorbance at 490 nm was then measured. Absorbance was converted to cell number according to a standard. […]

[4] = test system: human adult dermal fibroblast; assay: 3D culture inside peptide gels, cell shape; assay type: cell-based; conditions: 10 mM/L gel, cells seeded inside the gel
Protocol: With 10 mM/L Fmoc-Phe-Phe-OH self-assembled hydrogels, human adult dermal fibroblast were also seeded 3 dimensionally (3D culture) inside the peptide gels. […] Despite proliferation, whether ECM components (proteins and saccharides) were synthesized and secreted by these cells is another way to justify cells' reaction to the material. However, viability of the cells is of necessity to maintain a steady ECM secretion or to restore proliferation after possible cell spreading at later time points.

O=C(N[C@@H](Cc1ccccc1)C(=O)N[C@@H](Cc1ccccc1)C(=O)O)OCC1c2ccccc2-c2ccccc21 [Entry 1, Fmoc-Phe-Phe-OH] (Fmoc-Phe-Phe-OH)
Gel? ([1]; Component 1 10 mM/L, pH 7): ✓
Concentration ([1]; Properties of self-assembled Fmoc-dipeptides (Table 1), concentration range of gel): 2900 to 30000 µM
pH ([1]; Properties of self-assembled Fmoc-dipeptides (Table 1), pH range of gel): 4-8
pH ([1]; pH at which the gel formed at the indicated concentrations (Table 3)): 7
cell viability (from gene expression) [2]: viable cells present
expression of GAPDH ([2]; 10 mM gel): expression
expression of SOX-9 ([2]; 10 mM gel): lack of expression
expression of aggrecan ([2]; 10 mM gel): lack of expression
expression of type I collagen ([2]; 10 mM gel): expression
expression of type II collagen ([2]; 10 mM gel): lack of expression
cell number (LDH assay), initial course ([3]; 3D culture, 10 day period): initially a decreasing of cell numbers
cell number increase (LDH assay) ([3]; from day 7 to day 10, 3D culture): 5 folds
cell shape in 3D culture [4]: oval to round cell shape remained for a long term
